Here are results for 34 molecules from US9763942B2, “Serine/threonine kinase inhibitors” (Array BioPharma Inc., priority 2013, dated 2017).

As a reminder, the IC50 is the concentration that gives 50% inhibition.

Read-outs that look alike come from different tables or passages of the source.

In this experiment the target is T1, human ERK-2 (Mitogen Activated Kinase 1) (Homo sapiens, UniProt P28482).
T1 construct: n-terminal 6-His fusion protein in E. coli and corresponding to aa 8-360; 6-His (N); made in house; host or cells: E. coli
Description: ERK-2 Enzymatic Assay. It counts as biochemical. An excerpt:
Table 1 contains representative data for Examples disclosed herein.

Where [1] appears, read: ERK-2 enzymatic assay, read-out: IC50.

T1 sequence (P28482 8-360): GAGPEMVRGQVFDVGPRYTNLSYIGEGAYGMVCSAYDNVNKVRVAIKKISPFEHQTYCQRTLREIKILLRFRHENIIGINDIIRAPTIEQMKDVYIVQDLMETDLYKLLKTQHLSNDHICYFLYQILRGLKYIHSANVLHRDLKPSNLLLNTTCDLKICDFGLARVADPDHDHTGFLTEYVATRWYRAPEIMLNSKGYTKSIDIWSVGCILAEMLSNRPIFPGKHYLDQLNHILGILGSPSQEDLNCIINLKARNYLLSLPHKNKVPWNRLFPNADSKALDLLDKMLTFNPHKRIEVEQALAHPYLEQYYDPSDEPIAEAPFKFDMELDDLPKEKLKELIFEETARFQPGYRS

`Cn1nccc1Nc1nccc(-c2ccc3c(c2)nnn3CCCF)n1` [Example 40, 4-(1-(3-fluoropropyl)-1H-benzo[d][1,2,3]triazol-5-yl)-N-(1-methyl-1H-pyrazol-5-yl)pyrimidin-2-amine]: the half-maximal inhibitory concentration (IC50) under setting [1] was < 100 nM.

On to `COc1ccc(Cn2nnc3cc(-c4ccnc(N[C@H]5CCOC[C@H]5F)n4)ccc32)cc1F` [Example 7, 4-(1-(3-fluoro-4-methoxybenzyl)-1H-benzo[d][1,2,3]triazol-5-yl)-N-((3S,4S)-3-fluorotetrahydro-2H-pyran-4-yl)pyrimidin-2-amine], for which the 50% inhibitory concentration (IC50) under setting [1] is < 100 nM.

As for `COc1ccc(Cn2nnc3cc(-c4ccnc(NCC5COC5)n4)ccc32)cc1F` [Example 17, 4-(1-(3-fluoro-4-methoxybenzyl)-1H-benzo[d][1,2,3]triazol-5-yl)-N-(oxetan-3-ylrnethyl)pyrimidin-2-amine], the half-maximal inhibitory concentration (IC50) under setting [1] was < 100 nM.

Take `Cn1nccc1Nc1nccc(-c2ccc3c(c2)nnn3CC(F)F)n1` [Example 37, 4-(1-(2,2-difluoroethyl)-1H-benzo[d][1,2,3]triazol-5-yl)-N-(1-methyl-1H-pyrazol-5-yl)pyrimidin-2-amine]: the IC50 under setting [1] was < 100 nM.

Consider `COc1cccc(F)c1CN1C[C@H](n2nnc3cc(-c4ccnc(Nc5ccnn5C)n4)ccc32)CC(F)(F)C1` [Example 106, (R)-4-(1-(5,5-difluoro-1-(2-fluoro-6-methoxybenzyl)piperidin-3-yl)-1H-benzo[d][1,2,3]triazol-5-yl)-N-(1-methyl-1H-pyrazol-5-yl)pyrimidin-2-amine], for which the half-maximal inhibitory concentration (IC50) under setting [1] was < 100 nM.

Regarding `CCOCC1(Cn2nnc3cc(-c4ccnc(Nc5ccnn5C)n4)ccc32)CC1` [Example 45, 4-(1-((1-(ethoxymethyl)cyclopropyl)methyl)-1H-benzo[d][1,2,3]triazol-5-yl)-N-(1-methyl-1H-pyrazol-5-yl)pyrimidin-2-amine], the half-inhibitory concentration (IC50) under setting [1] was < 100 nM.

Regarding `CN(C)CC(c1ccc(Cl)c(F)c1)n1nnc2cc(-c3ccnc(Nc4ccnn4C)n3)ccc21` (stereo not shown) [Example 91, 4-(1-(1-(4-chloro-3-fluorophenyl)-2-(dimethylamino)ethyl)-1H-benzo[d][1,2,3]triazol-5-yl)-N-(1-methyl-1H-pyrazol-5-yl)pyrimidin-2-amine], the IC50 under setting [1] was < 100 nM.

On to `Cn1nccc1Nc1nccc(-c2ccc3c(c2)nnn3CC2CC(F)(F)C2)n1` [Example 34, 4-(1-((3,3-difluorocyclobutyl)methyl)-1H-benzo[d][1,2,3]triazol-5-yl)-N-(1-methyl-1H-pyrazol-5-yl)pyrimidin-2-amine], for which the IC50 under setting [1] was < 100 nM.

Consider `COc1cccc(F)c1CN1CCC[C@@H](n2nnc3cc(-c4ccnc(Nc5ccnn5C)n4)ccc32)C1` [Example 105, (R)-4-(1-(1-(2-fluoro-6-methoxybenzyl)piperidin-3-yl)-1H-benzo[d][1,2,3]triazol-5-yl)-N-(1-methyl-1H-pyrazol-5-yl)pyrimidin-2-amine], for which, under setting [1], the half-maximal inhibitory concentration (IC50) is < 100 nM.

With `COc1cccnc1Cn1nnc2cc(-c3ccnc(Nc4ccnn4C)n3)ccc21` [Example 68, 4-(1-((3-methoxypyridin-2-yl)methyl)-1H-benzo[d][1,2,3]triazol-5-yl)-N-(1-methyl-1H-pyrazol-5-yl)pyrimidin-2-amine], the IC50 under setting [1] is < 100 nM.

Take `Cn1nccc1Nc1nccc(-c2ccc3c(c2)nnn3Cc2cccc(Cl)c2)n1` [Example 117, 4-(1-(3-chlorobenzyl)-1H-benzo[d][1,2,3]triazol-5-yl)-N(1-methyl-1H-pyrazol-5-yl)pyrimidin-2-amine]: the half-maximal inhibitory concentration (IC50) under setting [1] is < 100 nM.

In the case of `CC(C)Cn1nnc2cc(-c3ccnc(Nc4cnn(C)n4)n3)ccc21` [Example 99, 4-(1-isobutyl-1H-benzo[d][1,2,3]triazol-5-yl)-N-(2-methyl-2H-1,2,3-triazol-4-yl)pyrimidin-2-amine], under setting [1], the 50% inhibitory concentration (IC50) is < 100 nM.

As to `CC(O)CCn1nnc2cc(-c3ccnc(Nc4ccnn4C)n3)ccc21` (stereo not shown) [Example 41, 4-(5-(2-((1-methyl-1H-pyrazol-5-yl)amino)pyrimidin-4-yl)-1H-benzo[d][1,2,3]triazol-1-yl)butan-2-ol], under setting [1], the half-inhibitory concentration (IC50) is < 100 nM.

`Cn1nccc1Nc1nccc(-c2cnc3c(c2)nnn3Cc2ccc(F)c(Cl)c2)n1` [Example 121, 4-(3-(3-chloro-4-fluorobenzyl)-3H-[1,2,3]triazolo[4,5-b]pyridin-6-yl)-N-(1-methyl-1H-pyrazol-5-yl)pyrimidin-2-amine]: the IC50 under setting [1] was < 100 nM.

For the molecule `Cn1nccc1Nc1nccc(-c2ccc3c(c2)nnn3[C@H]2CNCC(F)(F)C2)n1` [Example 79, (R)-4-(1-(5,5-difluoropiperidin-3-yl)-1H-benzo[d][1,2,3]triazol-5-yl)-N-(1-methyl-1H-pyrazol-5-yl)pyrimidin-2-amine], under setting [1], the concentration for half-maximal inhibition (IC50) was < 100 nM.

As for `COc1ncccc1Cn1nnc2cc(-c3ccnc(Nc4ccnn4C)n3)cnc21` [Example 126, 4-(3-((2-methoxypyridin-3-yl)methyl)-3H-[1,2,3]triazolo[4,5-b]pyridin-6-yl)-N-(1-methyl-1H-pyrazol-5-yl)pyrimidin-2-amine], under setting [1], the 50% inhibitory concentration (IC50) was < 100 nM.

Consider `CCC(C)Cn1nnc2cc(-c3ccnc(Nc4ccnn4C)n3)ccc21` (stereo not shown) [Example 27], for which, under setting [1], the half-maximal inhibitory concentration (IC50) was < 100 nM.

As for `COc1ccc(Cn2nnc3cc(-c4ccnc(Nc5cnn(C)c5)n4)ccc32)cc1F` [Example 2, 4-(1-(3-fluoro-4-methoxybenzyl)-1H-benzo[d][1,2,3]triazol-5-yl)-N-(1-methyl-1H-pyrazol-4-yl)pyrimidin-2-amine], under setting [1], the IC50 is < 100 nM.

In the case of `Cn1nccc1Nc1nccc(-c2cnc3c(c2)nnn3Cc2cccc(Cl)c2)n1` [Example 124, 4-(3-(3-chlorobenzyl)-3H-[1,2,3]triazolo[4,5-b]pyridin-6-yl)-N-(1-methyl-1H-pyrazol-5-yl)pyrimidin-2-amine], the IC50 under setting [1] is < 100 nM.

Take `COc1ccc(Cn2nnc3cc(-c4ccnc(Nc5nnn(C)n5)n4)ccc32)cc1F` [Example 26, 4-(1-(3-fluoro-4-methoxybenzyl)-1H-benzoyl[d][1,2,3]triazol-5-yl)-N-(2-methyl-2H-tetrazol-5-yl)pyrimidin-2-amine]: under setting [1], the IC50 was < 100 nM.

On to `Cn1nccc1Nc1nccc(-c2ccc3c(c2)nnn3C2CNCCC2c2ccc(F)cc2)n1` (stereo not shown) [Example 90, 4-(1-(4-(4-fluorophenyl)piperidin-3-yl)-1H-benzo[d][1,2,3]triazol-5-yl)-N-(1-methyl-1H-pyrazol-5-yl)pyrimidin-2-amine], for which, under setting [1], the IC50 was < 100 nM.

Regarding `Cn1nccc1Nc1nccc(-c2ccc3c(c2)nnn3CCc2ccccc2Cl)n1` [Example 49, 4-(1-(2-chlorophenethyl)-1H-benzo-[d][1,2,3]triazol-5-yl)-N-(1-methyl-1H-pyrazol-5-yl)pyrimidin-2-amine], the IC50 under setting [1] is < 100 nM.

For the molecule `COc1ccc(Cn2nnc3cc(-c4ccnc(Nc5ccnn5C)n4)ccc32)cc1F` [Example 113, 4-(1-(3-fluoro-4-methoxybenzyl)-1H-benzol[d][1,2,3]triazol-5-yl)-N-(1-methyl-1H-pyrazol-5-yl)pyrimidin-2-amine], the IC50 under setting [1] was < 100 nM.

For `COc1ncc(F)cc1N1CC[C@H](n2nnc3cc(-c4ccnc(Nc5ccnn5C)n4)ccc32)C1` [Example 81, (S)-4-(1-(1-(5-fluoro-2-methoxypyridin-3-yl)pyrrolidin-3-yl)-1H-benzo[d][1,2,3]triazol-5-yl)-N-(1-methyl-1H-pyrazol-5-yl)pyrimidin-2-amine], for the setting “5 nM ERK-2 enzyme, 25 μM ATP (observed Km), Omnia peptide S/T17, single assay or mean of multiple assays, read-out: Biological Example 1 IC50”, the half-inhibitory concentration (IC50) came out at 511 nM.

Regarding `Fc1cccc(Cn2nnc3cc(-c4ccnc(NC5CCOCC5)n4)ccc32)c1` [Example 107, 4-(1-(3-fluorobenzyl)-1H-benzo[d][1,2,3]triazol-5-yl)-N-(tetrahydro-2H-pyran-4-yl)pyrimidin-2-amine], under setting [1], the IC50 is < 100 nM.

With `CCC(CC)Cn1nnc2cc(-c3ccnc(Nc4ccnn4C)n3)ccc21` [Example 28, 4-(1-(2-ethylbutyl)-1H-benzo[d][1,2,3]triazol-5-yl)-N(1-methyl-1H-pyrazol-5-yl)pyrimidin-2-amine], the 50% inhibitory concentration (IC50) under setting [1] was < 100 nM.

For `Cn1nccc1Nc1nccc(-c2ccc3c(c2)nnn3Cc2ccccc2C(F)(F)F)n1` [Example 122], the IC50 under setting [1] was < 100 nM.

For the molecule `Cn1nccc1Nc1nccc(-c2ccc3c(c2)nnn3CC2CN(CC(F)(F)F)C2)n1` [Example 64, N-(1-methyl-1H-pyrazol-5-yl)-4-(1-((1-(2,2,2-trifluoroethyl)azetidin-3-yl)methyl)-1H-benzo[d][1,2,3]triazol-5-yl)pyrimidin-2-amine], under setting [1], the IC50 is < 100 nM.

Turning to `Cn1nccc1Nc1nccc(-c2ccc3c(c2)nnn3CC2(c3ccc(OC(F)(F)F)cc3)CC2)n1` [Example 47, N-(1-methyl-1H-pyrazol-5-yl)-4-(1-((1-(4-(trifluoromethoxy)phenyl)cyclopropyl)methyl)-1H-benzo[d][1,2,3]triazol-5-yl)pyrimidin-2-amine], under setting [1], the concentration for half-maximal inhibition (IC50) is < 100 nM.

Regarding `COc1ccc(Cn2nnc3cc(-c4ccnc(NCC(C)(C)O)n4)ccc32)cc1F` [Example 18, 1-((4-(1-(3-fluoro-4-methoxybenzyl)-1H-benzo[d][1,2,3]triazol-5-yl)pyrimidin-2-yl)amino)-2-methylpropan-2-ol], under setting [1], the IC50 is < 100 nM.

In the case of `Cn1nccc1Nc1nccc(-c2ccc3c(c2)nnn3Cc2ccc(F)cc2F)n1` [Example 123], under setting [1], the IC50 is < 100 nM.

On to `CN1CC(Cn2nnc3cc(-c4ccnc(Nc5ccnn5C)n4)ccc32)C1` [Example 36, N-(1-methyl-1H-pyrazol-5-yl)-4-(1-((1-methylazetidin-3-yl)methyl)-1H-benzo[d][1,2,3]triazol-5-yl)pyrimidin-2-amine], for which the IC50 under setting [1] is < 100 nM.

As to `Fc1ccc(Cn2nnc3cc(-c4ccnc(NC5CCOCC5)n4)ccc32)cc1` [Example 111, 4-(1-(4-fluorobenzyl)-1H-benzo[d][1,2,3]triazol-5-yl)-N-(tetrahydro-2H-pyran-4-yl)pyrimidin-2-amine], under setting [1], the half-inhibitory concentration (IC50) was < 100 nM.

Turning to `Cn1nccc1Nc1cc(-c2cnc3c(c2)nnn3Cc2cccc(Cl)c2)ccn1` [Example 115, 4-(3-(3-chlorobenzyl)-3H-[1,2,3]triazolo[4,5-b]pyridin-6-yl)-N-(1-methyl-1H-pyrazol-5-yl)pyridin-2-amine], the IC50 under setting [1] is < 100 nM.
